For 25 compounds, MIC results are on record in US20170260178A1 (SPERO GYRASE, INC., priority 2012, published 2017).

The subject of one experiment is S. aureus (ATCC 29213). The experiment can be described thus: Bacterial assay: MIC against S. aureus. The format is cell-based, Staphylococcus aureus. The conditions noted are these: Staphylococcus aureus, ATCC29213, read-out: minimal inhibitory concentration (MIC).
Another experiment deals with S. pyogenes (ATCC 51339). The experiment can be described thus: Bacterial assay: MIC against S. pyogenes. The experiment is classed as cell-based, Streptococcus pyogenes. The conditions noted are these: Streptococcus pyogenes, ATCC51339, read-out: minimal inhibitory concentration (MIC).
For experiment [1], the system named is H. influenzae (ATCC 49247). The experiment can be described thus: Bacterial assay: MIC against H. influenzae. The conditions noted are these: Haemophilus influenzae, ATCC49247; H. influenzae ATCC 49247; read-out: minimal inhibitory concentration (MIC). The format is cell-based.

SMILES strings stand for the structures.

On to `CNC(=O)Nc1nc2cc(-c3cnc(C(C)O)nc3)cc(-c3ccccn3)c2s1` (centres unmarked) [Compound 83, 1-[5-[2-(1-hydroxyethyl)pyrimidin-5-yl]-7-(2-pyridyl)-1,3-benzothiazol-2-yl]-3-methyl-urea], for which the MIC was ≤ 1 µg/mL with S. aureus (ATCC 29213), ≤ 1 µg/mL in the experiment with S. pyogenes (ATCC 51339) and ≤ 2 µg/mL in experiment [1].

For the compound `CCNC(=O)Nc1nc2cc(-c3ccc(C(O)C(F)(F)F)nc3)cc(-c3ccccn3)c2s1` (centres unmarked) [Compound 96, 1-ethyl-3-[7-(2-pyridyl)-5-[6-(2,2,2-trifluoro-1-hydroxy-ethyl)-3-pyridyl]-1,3-benzothiazol-2-yl]urea], the MIC was ≤ 1 µg/mL with S. aureus (ATCC 29213), ≤ 1 µg/mL in the experiment on S. pyogenes (ATCC 51339) and ≤ 2 µg/mL in experiment [1].

On to `CCNC(=O)Nc1nc2cc(-c3cnc(C(C)O)nc3)cc(-c3cc(CN4CCSCC4)ccn3)c2s1` (centres unmarked) [Compound 185, 1-ethyl-3-[5-[2-[1-hydroxyethyl]pyrimidin-5-yl]-7-[4-(thiomorpholinomethyl)-2-pyridyl]-1,3-benzothiazol-2-yl]urea], for which the MIC with S. aureus (ATCC 29213) was ≤ 1 µg/mL; in the experiment on S. pyogenes (ATCC 51339), ≤ 1 µg/mL; in experiment [1], ≤ 2 µg/mL.

Take `CNC(=O)Nc1nc2cc(-c3cnc(C(C)(C)O)nc3)cc(-c3ccccn3)c2s1` [Compound 82, 1-[5-[2-(1-hydroxy-1-methyl-ethyl)pyrimidin-5-yl]-7-(2-pyridyl)-1,3-benzothiazol-2-yl]-3-methyl-urea]: the MIC in the experiment on S. aureus (ATCC 29213) was ≤ 1 µg/mL; with S. pyogenes (ATCC 51339), ≤ 1 µg/mL; in experiment [1], ≤ 2 µg/mL.

As to `CCNC(=O)Nc1nc2cc(-c3cnc(C(C)(C)O)nc3)cc(-c3cc(CN4CC[C@@H](F)C4)ccn3)c2s1` [Compound 36, 1-ethyl-3-[7-[4-[[(3R)-3-fluoropyrrolidin-1-yl]methyl]-2-pyridyl]-5-[2-(1-hydroxy-1-methyl-ethyl)pyrimidin-5-yl]-1,3-benzothiazol-2-yl]urea], the MIC was ≤ 1 µg/mL in the experiment with S. aureus (ATCC 29213), ≤ 1 µg/mL with S. pyogenes (ATCC 51339) and ≤ 2 µg/mL in experiment [1].

Take `CCNC(=O)Nc1nc2cc(-c3cnc(C(C)(C)O)nc3)cc(-c3ncccn3)c2s1` [Compound 10, 1-ethyl-3-[5-[2-(1-hydroxy-1-methyl-ethyl)pyrimidin-5-yl]-7-pyrimidin-2-yl-1,3-benzothiazol-2-yl]urea]: the MIC is ≤ 1 µg/mL in the experiment with S. aureus (ATCC 29213), ≤ 1 µg/mL in the experiment with S. pyogenes (ATCC 51339) and ≤ 2 µg/mL in experiment [1].

`CCNC(=O)Nc1nc2cc(-c3cnc([C@@H](C)O)nc3)cc(-c3ccccn3)c2s1` [Compound 22, 1-ethyl-3-[5-[2-[(1R)-1-hydroxyethyl]pyrimidin-5-yl]-7-(2-pyridyl)-1,3-benzothiazol-2-yl]urea]: the MIC in the experiment with S. aureus (ATCC 29213) is ≤ 1 µg/mL; in the experiment on S. pyogenes (ATCC 51339), ≤ 1 µg/mL; in experiment [1] it was ≤ 2 µg/mL.

Turning to `CCNC(=O)Nc1nc2cc(-c3ccc(C(O)C(F)(F)F)nc3)cc(-c3cc(CN4CC(OC)C4)ccn3)c2s1` (centres unmarked) [Compound 155, 1-ethyl-3-[7-[4-[(3-methoxyazetidin-1-yl)methyl]-2-pyridyl]-5-[6-[2,2,2-trifluoro-1-hydroxy-ethyl]-3-pyridyl]-1,3-benzothiazol-2-yl]urea], the MIC is ≤ 1 µg/mL with S. aureus (ATCC 29213), ≤ 1 µg/mL in the experiment with S. pyogenes (ATCC 51339) and ≤ 2 µg/mL in experiment [1].

On to `CCNC(=O)Nc1nc2cc(-c3cnc(C(C)(C)O)nc3)cc(-c3cc(C)ncn3)c2s1` [Compound 43, 1-ethyl-3-[5-[2-(1-hydroxy-1-methyl-ethyl)pyrimidin-5-yl]-7-(6-methylpyrimidin-4-yl)-1,3-benzothiazol-2-yl]urea], for which the MIC is ≤ 1 µg/mL in the experiment with S. aureus (ATCC 29213), ≤ 1 µg/mL in the experiment with S. pyogenes (ATCC 51339) and ≤ 2 µg/mL in experiment [1].

In the case of `CCCC(O)c1ncc(-c2cc(-c3ccccn3)c3sc(NC(=O)NCC)nc3c2)cn1` (centres unmarked) [Compound 61, 1-ethyl-3-[5-[2-(1-hydroxybutyl)pyrimidin-5-yl]-7-(2-pyridyl)-1,3-benzothiazol-2-yl]urea], the MIC is ≤ 1 µg/mL with S. aureus (ATCC 29213), ≤ 1 µg/mL in the experiment on S. pyogenes (ATCC 51339) and ≤ 2 µg/mL in experiment [1].

Turning to `CCNC(=O)Nc1nc2cc(-c3cnc(C(C)(C)O)nc3)cc(-c3cc(N4CCC(C)(C(=O)O)CC4)ncn3)c2s1` [Compound 87, 1-[6-[2-(ethylcarbamoylamino)-5-[2-(1-hydroxy-1-methyl-ethyl)pyrimidin-5-yl]-1,3-benzothiazol-7-yl]pyrimidin-4-yl]-4-methyl-piperidine-4-carboxylic acid], the MIC in the experiment on S. aureus (ATCC 29213) is ≤ 1 µg/mL; in the experiment with S. pyogenes (ATCC 51339) it was ≤ 1 µg/mL; in experiment [1], ≤ 2 µg/mL.

`CCNC(=O)Nc1nc2cc(-c3cnc(C(C)(C)O)nc3)cc(-c3cc(OCCN4CCOCC4)ccn3)c2s1` [Compound 32, 1-ethyl-3-[5-[2-(1-hydroxy-1-methyl-ethyl)pyrimidin-5-yl]-7-[4-(2-morpholinoethoxy)-2-pyridyl]-1,3-benzothiazol-2-yl]urea]: the MIC was ≤ 1 µg/mL in the experiment on S. aureus (ATCC 29213), ≤ 1 µg/mL in the experiment on S. pyogenes (ATCC 51339) and ≤ 2 µg/mL in experiment [1].

For the compound `CCNC(=O)Nc1nc2cc(-c3cnc(C(C)(C)O)nc3)cc(-c3cc(CN4CCSCC4)ccn3)c2s1` [Compound 187, 1-ethyl-3-[5-[2-(1-hydroxy-1-methyl-ethyl)pyrimidin-5-yl]-7-[4-(thiomorpholinomethyl)-2-pyridyl]-1,3-benzothiazol-2-yl]urea], the MIC in the experiment with S. aureus (ATCC 29213) was ≤ 1 µg/mL; in the experiment with S. pyogenes (ATCC 51339), ≤ 1 µg/mL; in experiment [1] it was ≤ 2 µg/mL.

With `CCNC(=O)Nc1nc2cc(-c3cnc(C(C)(C)O)nc3)cc(-c3cnccn3)c2s1` [Compound 39, 1-ethyl-3-[5-[2-(1-hydroxy-1-methyl-ethyl)pyrimidin-5-yl]-7-pyrazin-2-yl-1,3-benzothiazol-2-yl]urea], the MIC in the experiment with S. aureus (ATCC 29213) was ≤ 1 µg/mL; in the experiment with S. pyogenes (ATCC 51339), ≤ 1 µg/mL; in experiment [1], ≤ 2 µg/mL.

With `CCNC(=O)Nc1nc2cc(-c3cnc(C(C)O)nc3)cc(-c3cc(OCCN4CCOCC4)ccn3)c2s1` (centres unmarked) [Compound 75, 1-ethyl-3-[5-[2-(1-hydroxyethyl)pyrimidin-5-yl]-7-[4-(2-morpholinoethoxy)-2-pyridyl]-1,3-benzothiazol-2-yl]urea], the values for the MIC (in the experiment on S. aureus (ATCC 29213); in the experiment with S. pyogenes (ATCC 51339); in experiment [1]) were ≤ 1 µg/mL, ≤ 1 µg/mL and ≤ 2 µg/mL, respectively.

As to `CCNC(=O)Nc1nc2cc(-c3cnc(C(C)O)nc3)cc(-c3cc(CN4CC(C)OCC4C)ccn3)c2s1` (centres unmarked) [Compound 71, 1-[7-[4-[(2,5-dimethylmorpholin-4-yl)methyl]-2-pyridyl]-5-[2-(1-hydroxyethyl)pyrimidin-5-yl]-1,3-benzothiazol-2-yl]-3-ethyl-urea], the MIC in the experiment with S. aureus (ATCC 29213) was ≤ 1 µg/mL; in the experiment with S. pyogenes (ATCC 51339), ≤ 1 µg/mL; in experiment [1] it was ≤ 2 µg/mL.

Turning to `CCNC(=O)Nc1nc2cc(-c3cnc(C(C)O)nc3)cc(-c3cc(CN4CC[C@H](F)C4)ccn3)c2s1` (stereo partly drawn) [Compound 64, 1-ethyl-3-[7-[4-[[(3S)-3-fluoropyrrolidin-1-yl]methyl]-2-pyridyl]-5-[2-(1-hydroxyethyl)pyrimidin-5-yl]-1,3-benzothiazol-2-yl]urea], the figures for the MIC (with S. aureus (ATCC 29213); in the experiment on S. pyogenes (ATCC 51339); in experiment [1]) were ≤ 1 µg/mL, ≤ 1 µg/mL and ≤ 2 µg/mL, respectively.

As to `CCNC(=O)Nc1nc2cc(-c3cnc(C(C)(C)O)nc3)cc(-c3cc(CN4CC(O)C4)ccn3)c2s1` [Compound 30, 1-ethyl-3-[7-[4-[(3-hydroxyazetidin-1-yl)methyl]-2-pyridyl]-5-[2-(1-hydroxy-1-methyl-ethyl)pyrimidin-5-yl]-1,3-benzothiazol-2-yl]urea], the MIC is ≤ 1 µg/mL in the experiment on S. aureus (ATCC 29213), ≤ 1 µg/mL with S. pyogenes (ATCC 51339) and ≤ 2 µg/mL in experiment [1].

Consider `CCNC(=O)Nc1nc2cc(-c3cnc(C4(O)COC4)nc3)cc(-c3ccccn3)c2s1` [Compound 113, 1-ethyl-3-[5-[2-(3-hydroxyoxetan-3-yl)pyrimidin-5-yl]-7-(2-pyridyl)-1,3-benzothiazol-2-yl]urea], for which the figures for the MIC (in the experiment on S. aureus (ATCC 29213); with S. pyogenes (ATCC 51339); in experiment [1]) were ≤ 1 µg/mL, ≤ 1 µg/mL and ≤ 2 µg/mL, respectively.

For `CCNC(=O)Nc1nc2cc(-c3cnc(C(C)O)cn3)cc(-c3ccccn3)c2s1` (centres unmarked) [Compound 6, 1-ethyl-3-[5-[5-(1-hydroxyethyl)pyrazin-2-yl]-7-(2-pyridyl)-1,3-benzothiazol-2-yl]urea], the MIC in the experiment on S. aureus (ATCC 29213) was ≤ 1 µg/mL; in the experiment on S. pyogenes (ATCC 51339), ≤ 1 µg/mL; in experiment [1] it was ≤ 2 µg/mL.

As to `CCNC(=O)Nc1nc2cc(-c3cnc(N4CCC(C)(C(=O)O)CC4)nc3)cc(-c3cc(C(C)O)ccn3)c2s1` (centres unmarked) [Compound 88, 1-[5-[2-(ethylcarbamoylamino)-7-[4-(1-hydroxyethyl)-2-pyridyl]-1,3-benzothiazol-5-yl]pyrimidin-2-yl]-4-methyl-piperidine-4-carboxylic acid], the MIC with S. aureus (ATCC 29213) is ≤ 1 µg/mL; in the experiment on S. pyogenes (ATCC 51339) it was ≤ 1 µg/mL; in experiment [1] it was ≤ 2 µg/mL.

In the case of `CCNC(=O)Nc1nc2cc(-c3cnc([C@@H](C)O)nc3)cc(-c3ccc(OC)cn3)c2s1` [Compound 202, 1-ethyl-3-[5-[2-[(1R)-1-hydroxyethyl]pyrimidin-5-yl]-7-(5-methoxy-2-pyridyl)-1,3-benzothiazol-2-yl]urea], the MIC was ≤ 1 µg/mL with S. aureus (ATCC 29213) and ≤ 2 µg/mL in experiment [1].

With `[2H]C1([2H])OC([2H])([2H])C([2H])([2H])N(Cc2ccnc(-c3cc(-c4cnc(C(C)(C)O)nc4)cc4nc(NC(=O)NCC)sc34)c2)C1([2H])[2H]` [Compound 198, 1-ethyl-3-[5-[2-(1-hydroxy-1-methyl-ethyl)pyrimidin-5-yl]-7-[4-[(2,2,3,3,5,5,6,6-octadeuteriomorpholin-4-yl)methyl]-2-pyridyl]-1,3-benzothiazol-2-yl]urea], the results for the MIC (with S. aureus (ATCC 29213); in experiment [1]) were ≤ 1 µg/mL and ≤ 2 µg/mL, respectively.

`CCNC(=O)Nc1nc2cc(-c3cnc(C4(O)CCN(C)CC4)nc3)cc(-c3ccccn3)c2s1` [Compound 128, 1-ethyl-3-[5-[2-(4-hydroxy-1-methyl-4-piperidyl)pyrimidin-5-yl]-7-(2-pyridyl)-1,3-benzothiazol-2-yl]urea]: the MIC in the experiment on S. aureus (ATCC 29213) and in the experiment with S. pyogenes (ATCC 51339) was ≤ 1 µg/mL each time.

In the case of `CCNC(=O)Nc1nc2cc(-c3cnc(C(C)(C)O)nc3)c(OCC3CC3)cc2s1` [Compound 182, 1-[6-(cyclopropylmethoxy)-5-[2-(1-hydroxy-1-methyl-ethyl)pyrimidin-5-yl]-1,3-benzothiazol-2-yl]-3-ethyl-urea], the MIC in the experiment with S. aureus (ATCC 29213) and in the experiment with S. pyogenes (ATCC 51339) was ≤ 1 µg/mL throughout.
